Experiment in all cases: inhibition of tumour cell growth, NCI panel, 48 h
Test [1] deals with NCI-H460.
Test [2] concerns NCI/ADR-RES.
For test [3], the system named is DU-145.
The test system of test [4] is MDA-MB-231.
For test [5], the system named is BT-549.
Test [6] has as its system TK-10.
Test [7] concerns PC-3.
Test [8] concerns COLO 205.
The subject of test [9] is T47D.
The subject of test [10] is KM12.
The test system of test [11] is HL-60.
Test [12] relates to MCF7.
In test [13] the test system is Hs-578T.
In test [14] the test system is MDA-MB-435.
For test [15], the system named is SF-295.
Test [16] deals with SN12C.
Test [17] concerns MDA-N.
For test [18], the system named is CCRF-CEM.
Test [19] deals with LOX IMVI.

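Following 48 hours of exposure in 96-well plates, responses at five concentrations were used to interpolate endpoints linearly. The concentration for 50% growth inhibition is given as GI50.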 The source made the active and inactive calls. No stated cut-off is given here; in the data, active = GI50 up to about 1.1 µM and inactive = higher.

On to `N[C@]1(C(=O)O)C[C@@H]2C(Br)=NO[C@@H]2C1`, for which the GI50 in test [1] is 55.7 µM (inactive); in test [2], > 100 µM (inactive); in test [3], > 100 µM (inactive); in test [4], > 100 µM (inactive); in [5], > 100 µM (inactive); in [6] it was > 100 µM (inactive). Further, the GI50 in [7], in [8], in [9], in test [10], in [11] and in [12] was > 100 µM (inactive) in each case. The GI50 in test [13], in [14] and in test [15] was > 100 µM (inactive) in each case.
Take `Cc1c2cc[n+](C)cc2c(C)c2c1[nH]c1ccccc12`: the GI50 in [1] is 1.89 µM (inactive); in test [3], 0.52 µM (active); in [16], 0.172 µM (active); in test [5], 2.38 µM (inactive); in test [6] it was 27.2 µM (inactive); in test [7], 4.83 µM (inactive). The GI50 in [17] is 1.92 µM (inactive); in test [8] it was 0.538 µM (active); in test [9], 0.157 µM (active); in test [18], 2.25 µM (inactive); in [10], 0.429 µM (active); in test [11], 8.69 µM (inactive). In addition, the GI50 in test [12] was 2.44 µM (inactive); in test [19] it was 6.59 µM (inactive); in [14], 9.02 µM (inactive); in [15], 0.237 µM (active).
As to `Clc1ccc(CCn2ccc3ccccc32)c(Cl)c1`, the GI50 in [1], in [2], in test [3], in test [4], in [16] and in test [5] was > 100 µM (inactive) throughout. In addition, the GI50 in test [6], in [7], in test [8], in test [18], in test [10] and in [11] was > 100 µM (inactive) in each case. In addition, the GI50 in test [12], in test [13], in test [14] and in test [15] was > 100 µM (inactive) throughout.
With `O=c1oc(-c2ccc(O)c(O)c2)cc2cccc(O)c12` [THUNBERGINOL A], the GI50 in [1] is 13.4 µM (inactive); in test [2] it was 14.6 µM (inactive); in test [3], 23.8 µM (inactive); in test [16], 14.4 µM (inactive); in test [5], 15.6 µM (inactive); in [6] it was 4.9 µM (inactive). Also, the GI50 in [7] was 11.1 µM (inactive); in [8], 10.5 µM (inactive); in [9], 0.871 µM (active); in test [18], 0.998 µM (active); in test [10], 11.4 µM (inactive); in [11] it was 17.1 µM (inactive). Further, the GI50 in test [12] was 9.57 µM (inactive); in [13], 21.2 µM (inactive); in test [14], 24.2 µM (inactive); in [15], 27.5 µM (inactive).
On to `COc1ccc(Nc2nc(N)c(C(=O)c3c[nH]c4ccccc34)s2)cc1`, for which the GI50 in [1] was 0.942 µM (active); in test [2] it was 1 µM (active); in [3], 2.2 µM (inactive); in [4] it was 9.91 µM (inactive); in test [16] it was 3.61 µM (inactive); in test [5] it was 2.43 µM (inactive). Also, the GI50 is 5.56 µM (inactive) in test [6]; 2.15 µM (inactive) in test [7]; 0.31 µM (active) in [17]; 0.731 µM (active) in test [8]; 3.6 µM (inactive) in [9]; 2.16 µM (inactive) in test [18]. Besides, the GI50 was 0.689 µM (active) in [10]; 1.07 µM (active) in test [11]; 1.03 µM (active) in [12]; 2.01 µM (inactive) in test [19]; 0.161 µM (active) in test [14]; 0.5 µM (active) in [15].
For the molecule `CC1=NC(=O)CNN1C1=NNC2(C(=O)N1)c1ccccc1-c1ccccc12`, the GI50 in test [1], in [2], in test [3], in [4], in [16] and in test [5] was > 100 µM (inactive) each time. Also, the GI50 in test [6], in test [7], in [17], in test [8], in test [18] and in test [11] was > 100 µM (inactive) each time. Moreover, the GI50 in test [12] is > 100 µM (inactive); in [19], > 100 µM (inactive); in test [13], 23.5 µM (inactive); in test [14] it was > 100 µM (inactive); in [15], > 100 µM (inactive).
`CN(C)CC(CO)(CN(C)C)CN(C)C`: the GI50 in [1], in test [2], in test [3], in test [16], in test [5] and in [6] was > 100 µM (inactive) each time. The GI50 in [7], in test [17], in test [8], in test [18], in test [10] and in test [11] was > 100 µM (inactive) in each case. Also, the GI50 in [12] and in test [15] was > 100 µM (inactive) in each case.
For `CN(C)N1C(=O)C(=O)N(c2cccc3ccccc23)C1=O`, the GI50 in test [1], in [2], in test [3], in test [4], in [16] and in [6] was > 10 µM (inactive) each time. For the same molecule, the GI50 in test [7], in [17], in test [8], in test [9], in test [18] and in [10] was > 10 µM (inactive) in each case. The GI50 in [11], in test [12], in [19], in [13], in [14] and in [15] was > 10 µM (inactive) throughout.
For the molecule `COc1ccc2c(c1)-c1oc3ccccc3c(=O)c1CO2`, the GI50 was 29.4 µM (inactive) in test [2]; 40.1 µM (inactive) in [3]; 36.3 µM (inactive) in test [4]; 32.7 µM (inactive) in test [16]; 37.3 µM (inactive) in [5]; 45.2 µM (inactive) in test [6]. Also, the GI50 in test [7] is 31.9 µM (inactive); in test [17] it was 23.4 µM (inactive); in test [8] it was 31.4 µM (inactive); in test [9], 29.9 µM (inactive); in test [18] it was 20.5 µM (inactive); in test [10] it was 39.5 µM (inactive). Besides, the GI50 was 36.9 µM (inactive) in test [12], 21.6 µM (inactive) in test [19], 25.6 µM (inactive) in test [14] and 69 µM (inactive) in test [15].

(Values after ChEMBL document CHEMBL1201862, “PubChem BioAssay data set” (2004).)
